Data: patent publication US11655239B2 (SHANGHAI INSTITUTE OF MATERIAL MEDICA, CHINESE ACADEMY OF …, priority 2019, dated 2023)

Legend:
KDR = KDR (Homo sapiens (Human), UniProt P35968); test: Enzyme selectivity test (ELISA), KDR; assay type: biochemical
Procedure: (§1) 1) Enzyme reaction substrate Poly(Glu, Tyr) 4:1 was diluted to 20 μg/mL with potassium-free PBS (10 mM sodium phosphate buffer, 150 mM NaCl, pH 7.2-7.4), and the microtiter plate was coated with 125 μL/well and placed at 37° C. for 12-16 hours of reaction. The liquid in the well was discard. The plate was washed three times with T-PBS (potassium-free PBS containing 0.1% Tween-20, 200 μL/well), 5 minutes each time. The ELISA plate was dried in an oven at 37° C. for 1 to 2 hours.
(§2) 2) Reaction buffer (50 mM HEPES pH 7.4, 50 mM MgCl2, 0.5 mM MnCl2, 0.2 mM Na3VO4, 1 mM DTT) diluted ATP solution (49 μL) was added to each well, 1 μL of the compound to be tested was added to each well, and then 50 μL of DDR2 kinase domain recombinant protein diluted in the reaction buffer was added to start the reaction. Two control wells without ATP were set in each experiment. The plate placed on a shaker (100 rpm) at 37° C. for 1 hour of reaction. The liquid in the well was discarded and the plate was washed three times with T-PBS.
(§3) 3) Antibody PY99 dilution solution (the antibody was diluted 1:500 with T-PBS containing BSA 5 mg/mL) was added at 100 μL/well, and shaken on a shaker at 37° C. for 0.5 hour of reaction. The liquid in the well was discarded and the plate was washed three times with T-PBS.
(§4) 4) Horseradish peroxidase labeled goat anti-murine secondary antibody dilution solution (the antibody is diluted 1:2000 with T-PBS containing BSA 5 mg/ml) was added at 100 μL/well, and shaken on a shaker at 37° C. for 0.5 hour of reaction. The liquid in the well was discarded and the plate was washed three times with T-PBS.
(§5) 5) 2 mg/ml of OPD color developing solution [diluted with 0.1 M citric acid-sodium citrate buffer (pH=5.4) containing 0.03% H2O2] was added at 100 μL/well and reacted for 1 to 10 minutes at 25° C. in the dark.
(§6) 6) 2M H2SO4 was added at 50 μL/well to stop the reaction, and a tunable wavelength microplate reader VERSAmax was used for reading at a wavelength of 490 nm.
(§7) The IC50 value was obtained by four-parameter regression using the software that came with the microplate reader. […]

Met = Met (Homo sapiens (Human), UniProt P08581); test: Enzyme selectivity test (ELISA), Met; assay type: biochemical
Procedure: as §1, §2, §3, §4, §5, §6, §7

kinases = test: Enzyme selectivity test, kinase panel overall; assay type: biochemical; details: kinase panel of Table 5
Source text: Except that the enzyme was different, other test methods and conditions were the same as the DDR2 enzyme activity test method in Effect example 1.

[1] = tested on: mouse model of BLM-induced lung injury; test: Histopathological evaluation of lung sections, H&E staining; assay type: in vivo; details: Effect example 4; mice; S15 30, 60, 90 mg/kg, Nintedanib 30 mg/kg, oral qd 12 days
Procedure: Experimental objective: This group of experiments aimed to investigate the therapeutic potential of the compound S15 in acute lung injury and inflammation induced by bleomycin (BLM).
Experimental grouping (8 mice per group):
Model group (BLM): the mice received BLM (1.7 U/kg) via intratracheal instillation;
Compound S15 group (S15): this group was divided into three dose groups, namely 30, 60 and 90 mg/kg;
Positive control group (Nintedanib): Nintedanib administration group;
Negative control group (Control): only saline was used.
1) Material acquisition: The fresh tissue was fixed in 4% paraformaldehyde for more than 24 hours. The tissue was removed from the fixative solution and trim the tissue at the target site. The trimmed tissue was marked and placed in the dehydration box for later use.
2) Dehydration: The dehydration box was put in the dehydrator and different concentration gradients of ethanol was used sequentially for dehydration. 75% ethanol (4 hours), 85% ethanol (2 hours), 90% ethanol (2 hours), 95% ethanol (1 hour), absolute ethanol I (30 minutes), absolute ethanol II (30 minutes), alcohol benzene (5-10 minutes), xylene I (5-10 minutes), xylene II (5-10 minutes), wax I (1 hour), wax II (1 hour), wax III (1 hour).
3) Embedment: The wax melted at high temperature was put into the embedding frame; before the wax was cooled and solidified, the tissue was taken out of the dehydration box, put into the embedding frame according to the requirements of the embedding surface, marked and cooled at −20° C. After completely solidified, the wax block was removed from the embedding frame and trimmed.
4) Section: The trimmed wax block was put on a paraffin microtome for sectioning. The section thickness was about 4 μm. The sections were floated on warm water at 40° C. of the flotation workstation and flatten. A glass slide was used to lift the tissue from the warm water, and put into a 60° C. oven for dryness. After the water was dried and the wax melted, the glass slide was taken out and stored at ambient temperature for later use. […]

ErbB2 = ErbB2 (Homo sapiens (Human), UniProt P04626); test: Enzyme selectivity test (ELISA), ErbB2; assay type: biochemical
Procedure: as §1, §2, §3, §4, §5, §6, §7

[2] = tested on: mouse model of BLM-induced lung injury; test: Serum ALP and LDH levels; assay type: in vivo; details: mice
Source text: Alkaline phosphatase (ALP) level and lactate dehydrogenase (LDH) level. An automatic blood indicator analyzer and related kits (alkaline phosphatase assay kit and lactate dehydrogenase assay kit) were used to measure related indicators.
Serum lactate dehydrogenase (LDH) and alkaline phosphatase (ALP) are important markers of inflammatory response of lung injury.

Chain of Met (P08581 25-1390): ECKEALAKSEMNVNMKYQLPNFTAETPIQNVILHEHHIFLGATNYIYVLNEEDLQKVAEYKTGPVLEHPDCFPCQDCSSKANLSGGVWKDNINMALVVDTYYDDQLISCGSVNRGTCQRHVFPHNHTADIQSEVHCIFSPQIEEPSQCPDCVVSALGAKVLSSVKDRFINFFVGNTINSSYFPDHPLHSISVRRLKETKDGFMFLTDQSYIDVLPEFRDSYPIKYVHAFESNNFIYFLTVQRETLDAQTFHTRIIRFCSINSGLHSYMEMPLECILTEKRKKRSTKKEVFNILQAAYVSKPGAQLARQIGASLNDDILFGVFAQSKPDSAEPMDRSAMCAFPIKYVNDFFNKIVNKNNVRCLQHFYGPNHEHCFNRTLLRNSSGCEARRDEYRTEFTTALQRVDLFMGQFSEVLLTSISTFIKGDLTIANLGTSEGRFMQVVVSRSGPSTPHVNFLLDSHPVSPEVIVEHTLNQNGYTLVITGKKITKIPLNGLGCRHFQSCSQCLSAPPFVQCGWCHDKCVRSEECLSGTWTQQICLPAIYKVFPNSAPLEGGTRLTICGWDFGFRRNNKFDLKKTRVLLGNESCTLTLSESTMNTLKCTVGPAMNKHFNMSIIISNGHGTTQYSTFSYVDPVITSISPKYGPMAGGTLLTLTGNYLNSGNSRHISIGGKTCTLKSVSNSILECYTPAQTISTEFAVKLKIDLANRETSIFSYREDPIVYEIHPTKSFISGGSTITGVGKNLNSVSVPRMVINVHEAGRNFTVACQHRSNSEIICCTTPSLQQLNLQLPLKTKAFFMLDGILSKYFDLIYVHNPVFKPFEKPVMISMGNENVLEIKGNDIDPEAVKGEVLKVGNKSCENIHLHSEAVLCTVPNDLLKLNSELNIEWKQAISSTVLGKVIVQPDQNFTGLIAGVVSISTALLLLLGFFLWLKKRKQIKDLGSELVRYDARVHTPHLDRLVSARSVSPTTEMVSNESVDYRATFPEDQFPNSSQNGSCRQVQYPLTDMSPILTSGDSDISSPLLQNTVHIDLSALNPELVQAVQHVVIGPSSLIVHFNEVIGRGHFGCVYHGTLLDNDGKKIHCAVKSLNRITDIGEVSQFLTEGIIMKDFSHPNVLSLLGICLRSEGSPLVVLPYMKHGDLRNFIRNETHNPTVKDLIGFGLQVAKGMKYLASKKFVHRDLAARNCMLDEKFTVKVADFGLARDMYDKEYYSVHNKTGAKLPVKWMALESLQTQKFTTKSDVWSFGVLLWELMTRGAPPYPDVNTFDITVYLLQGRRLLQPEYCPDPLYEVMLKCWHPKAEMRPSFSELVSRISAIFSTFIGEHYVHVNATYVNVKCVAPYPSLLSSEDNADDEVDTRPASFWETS
Chain of ErbB2 (P04626 23-1255, species assumed): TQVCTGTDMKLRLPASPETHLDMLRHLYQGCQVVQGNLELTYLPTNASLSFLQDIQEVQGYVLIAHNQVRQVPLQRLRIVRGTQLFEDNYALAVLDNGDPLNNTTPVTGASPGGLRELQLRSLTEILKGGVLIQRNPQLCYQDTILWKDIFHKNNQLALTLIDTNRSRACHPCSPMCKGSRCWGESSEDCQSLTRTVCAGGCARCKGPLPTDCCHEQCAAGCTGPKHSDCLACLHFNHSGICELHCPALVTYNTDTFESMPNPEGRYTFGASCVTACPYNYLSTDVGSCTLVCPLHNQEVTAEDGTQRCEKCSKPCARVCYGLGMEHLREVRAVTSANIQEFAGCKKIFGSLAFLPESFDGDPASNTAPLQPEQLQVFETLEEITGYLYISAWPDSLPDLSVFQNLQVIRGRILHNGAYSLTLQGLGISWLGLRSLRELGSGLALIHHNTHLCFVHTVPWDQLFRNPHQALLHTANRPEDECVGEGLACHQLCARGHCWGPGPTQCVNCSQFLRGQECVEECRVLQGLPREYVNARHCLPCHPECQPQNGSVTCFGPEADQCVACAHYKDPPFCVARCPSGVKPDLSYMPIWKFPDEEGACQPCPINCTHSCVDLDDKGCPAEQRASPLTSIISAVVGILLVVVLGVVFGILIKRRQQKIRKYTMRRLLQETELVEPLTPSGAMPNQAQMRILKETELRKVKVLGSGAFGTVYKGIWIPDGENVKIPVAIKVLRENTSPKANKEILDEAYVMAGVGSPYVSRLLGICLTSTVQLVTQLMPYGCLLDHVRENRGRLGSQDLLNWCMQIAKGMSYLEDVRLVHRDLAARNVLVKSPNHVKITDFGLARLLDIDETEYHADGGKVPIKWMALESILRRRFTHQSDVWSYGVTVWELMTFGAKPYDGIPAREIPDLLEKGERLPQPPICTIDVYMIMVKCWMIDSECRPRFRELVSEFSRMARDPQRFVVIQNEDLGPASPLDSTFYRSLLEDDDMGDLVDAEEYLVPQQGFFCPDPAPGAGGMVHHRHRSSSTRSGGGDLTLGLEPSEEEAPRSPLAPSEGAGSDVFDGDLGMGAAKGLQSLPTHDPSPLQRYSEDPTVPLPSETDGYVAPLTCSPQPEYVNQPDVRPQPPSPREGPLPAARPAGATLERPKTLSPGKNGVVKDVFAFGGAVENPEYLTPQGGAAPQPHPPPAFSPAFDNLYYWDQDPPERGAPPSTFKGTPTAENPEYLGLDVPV
Chain of KDR (P35968 20-1356, species assumed): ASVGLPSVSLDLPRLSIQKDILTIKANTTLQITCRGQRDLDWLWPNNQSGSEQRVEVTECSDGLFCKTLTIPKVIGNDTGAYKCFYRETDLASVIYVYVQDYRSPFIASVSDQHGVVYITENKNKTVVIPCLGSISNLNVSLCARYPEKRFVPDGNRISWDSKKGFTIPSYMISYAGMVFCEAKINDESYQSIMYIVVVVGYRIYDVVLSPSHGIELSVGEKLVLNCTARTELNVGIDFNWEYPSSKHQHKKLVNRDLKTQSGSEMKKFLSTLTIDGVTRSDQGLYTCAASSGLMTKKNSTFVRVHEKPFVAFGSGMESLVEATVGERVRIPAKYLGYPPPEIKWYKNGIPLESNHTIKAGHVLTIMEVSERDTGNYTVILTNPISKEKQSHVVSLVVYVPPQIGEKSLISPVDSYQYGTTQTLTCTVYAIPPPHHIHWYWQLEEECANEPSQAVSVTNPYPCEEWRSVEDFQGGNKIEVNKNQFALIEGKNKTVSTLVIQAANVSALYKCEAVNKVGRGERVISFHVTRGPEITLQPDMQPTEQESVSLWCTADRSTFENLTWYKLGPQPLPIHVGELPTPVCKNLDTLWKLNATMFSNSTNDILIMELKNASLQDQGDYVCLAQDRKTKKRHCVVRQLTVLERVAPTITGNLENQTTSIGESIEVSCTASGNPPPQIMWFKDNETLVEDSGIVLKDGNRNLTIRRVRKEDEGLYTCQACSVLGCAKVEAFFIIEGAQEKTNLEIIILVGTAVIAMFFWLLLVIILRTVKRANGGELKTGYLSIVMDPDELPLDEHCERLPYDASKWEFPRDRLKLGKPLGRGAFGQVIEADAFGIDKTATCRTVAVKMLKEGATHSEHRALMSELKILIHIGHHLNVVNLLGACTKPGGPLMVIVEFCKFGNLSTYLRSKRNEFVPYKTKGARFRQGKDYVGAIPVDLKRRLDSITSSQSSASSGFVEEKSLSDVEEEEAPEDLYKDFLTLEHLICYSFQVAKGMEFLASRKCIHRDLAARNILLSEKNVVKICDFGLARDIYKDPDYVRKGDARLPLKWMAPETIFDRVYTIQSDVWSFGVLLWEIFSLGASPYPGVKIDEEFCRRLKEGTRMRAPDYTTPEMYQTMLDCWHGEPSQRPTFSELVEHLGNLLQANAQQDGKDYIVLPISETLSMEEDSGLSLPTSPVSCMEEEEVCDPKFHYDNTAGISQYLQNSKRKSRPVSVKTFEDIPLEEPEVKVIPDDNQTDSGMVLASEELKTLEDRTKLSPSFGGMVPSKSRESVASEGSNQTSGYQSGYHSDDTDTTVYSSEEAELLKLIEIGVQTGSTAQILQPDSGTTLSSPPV

With `O=C(Nc1cccc(C(F)(F)F)c1)c1ccc(C2CC2)c(-c2ccc3nc(Nc4cnn(C5CC5)c4)ncc3c2)c1` [Compound S15, 4-cyclopropyl-3-(2-((1-cyclopropyl-1H-pyrazol-4-yl)amino)quinazolin-6-yl)-N-(3-(trifluoromethyl)phenyl)benzamide] the IC50 (KDR) was < 10 nM, the IC50 (Met) was > 1000 nM and the selectivity for kinases (kinases) was “good selectivity”. For the same molecule, the “BLM-induced lung injury, H&E staining” value [1] was “improved significantly”, the IC50 (ErbB2) was > 1000 nM and the ALP serum level [2] was “inhibit the level of ALP more effectively than nintedanib”. For the same molecule, the LDH serum level ([2]; 90 mg/kg high dose group) was “effectively inhibit serum LDH level”.
